For the experiment, the target named is MarA (Escherichia coli, UniProt P0ACH5). Description: Selective marker (ccdB) under MarA-activated promoter; cell survival under MarA expression (Example 2). The format is cell-based. Set-up: key: *: good inhibition of MarA; **: very good inhibition of MarA. To be noted: inhibition of MarA; cell survival under conditions of MarA expression. The source says: In this example, the expression of a selective marker (e.g., ccdB) is put under the direct control of a promoter activated by MarA (e.g., inaA, galT, or micF). In the absence of MarA, the expression of the selective marker is silent and cells survive. Synthesis of MarA from an inducible plasmid in a bacterial or yeast cell leads to the activation of the inaA promoter, expression of ccdB, and subsequently results in cell death. Compounds that inhibit MarA are those that permit cell survival under conditions of MarA expression. In Table 4, * indicates good inhibition of MarA and ** indicates very good inhibition of MarA.
Sequence of MarA (P0ACH5 whole entry, looked up): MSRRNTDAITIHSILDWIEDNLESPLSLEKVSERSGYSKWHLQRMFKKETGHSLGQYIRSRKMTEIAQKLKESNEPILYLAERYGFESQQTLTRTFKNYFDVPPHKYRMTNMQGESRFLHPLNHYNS
Regarding `O=C(O)COn1c(-c2ccccc2)nc2ccc([N+](=O)[O-])cc21` [AH, (6-Nitro-2-phenyl-benzoimidazol-1-yloxy)-acetic acid], the “MarA inhibition score (cell survival)” value is reported as “**”.

As for `c1ccc(CSc2ncc(-c3nnnn3-c3ccccc3)c(-c3ccccc3)n2)cc1` [AY, 2-(benzylthio)-4-phenyl-5-(1-phenyl-1H-1,2,3,4-tetraazol-5-yl)pyrimidine], the “MarA inhibition score (cell survival)” value was “**”.

For `O=c1cc(-c2ccccc2)oc2ccc(F)cc12` [AZ, 6-fluoro-2-phenyl-4H-chromen-4-one], the “MarA inhibition score (cell survival)” value is “**”.

As to `COC(=O)c1ccccc1NC(=O)CSc1nnc(-c2ccco2)n1-c1ccccc1` [AC, 2-[2-(5-Furan-2-yl-4-phenyl-4H-[1,2,4]triazol-3-ylsulfanyl)-acetylamino]-benzoic acid methyl ester], the “MarA inhibition score (cell survival)” value is “*”.

As for `CCOC(=O)C1=C(C)N=c2sc(=Cc3ccc(-c4ccc([N+](=O)[O-])cc4C)o3)c(=O)n2C1c1ccc2c(c1)OCO2` (centres unmarked) [P, 5-Benzo[1,3]dioxol-5-yl-7-methyl-2-[5-(2-methyl-4-nitro-phenyl)-furan-2-ylmethylene]-3-oxo-2,3-dihydro-5H-thiazolo[3,2-a]pyrimidine-6-carboxylic acid ethyl ester], the “MarA inhibition score (cell survival)” value is listed as “*”.

In the case of `N#Cc1c(-c2ccc3c(c2)OCO3)c(C#N)c2nc3ccccc3n2c1N` [AB, 1-Amino-3-benzo[1,3]dioxol-5-yl-benzo[4,5]imidazo[1,2-a]pyridine-2,4-dicarbonitrile], the “MarA inhibition score (cell survival)” value was “**”.

In the case of `Cc1ccc(COn2c(-c3ccccc3)nc3ccc([N+](=O)[O-])cc32)cc1` [AJ, 1-(4-Methyl-benzyloxy)-6-nitro-2-phenyl-1H-benzoimidazole], the “MarA inhibition score (cell survival)” value was “*”.

On to `C=Cc1nc2s/c(=C\c3cn(-c4ccccc4)nc3-c3ccc(F)cc3)c(=O)n2c1C` [AO, 2-[3-(4-Fluoro-phenyl)-1-phenyl-1H-pyrazol-4-ylmethylene]-5-methyl-6-vinyl-imidazo[2,1-b]thiazol-3-one], for which the “MarA inhibition score (cell survival)” value was “**”.

`CCSc1nnc2c(n1)OC(c1ccc(O)c(O)c1)Nc1ccccc1-2` (centres unmarked) [E, 4-(3-Ethylsulfanyl-6,7-dihydro-5-oxa-1,2,4,7-tetraaza-dibenzo[a,c]cyclo-hepten-6-yl)-benzene-1,2-diol]: the “MarA inhibition score (cell survival)” value was “*”.

As to `COc1ccc2c(=O)cc(-c3ccccc3)oc2c1` [BA, 7-methoxy-2-phenyl-4H-chromen-4-one], the “MarA inhibition score (cell survival)” value is recorded as “*”.

Take `O=C(O)COn1c(-c2ccccc2)nc2ccc([N+](=O)[O-])cc21` [BD, 2-[(6-nitro-2-phenyl-1H-1,3-benzimidazol-1-yl)oxy]acetic acid]: the “MarA inhibition score (cell survival)” value is on record as “*”.

For the compound `Cn1c(=O)c2c3oc(-c4ccc([N+](=O)[O-])cc4)nc3c(=O)n(-c3ccccc3)c2n(C)c1=O` [AK, 6,8-Dimethyl-2-(4-nitro-phenyl)-5-phenyl-5H,6H-1-oxa-3,5,6,8-tetraaza-cyclopenta[a]naphthalene-4,7,9-trione], the “MarA inhibition score (cell survival)” value is on record as “**”.

On to `Cc1ccc(-c2nc3c(=O)n(-c4ccccc4)c4c(c(=O)n(C)c(=O)n4C)c3o2)cc1` [AL, 6,8-Dimethyl-5-phenyl-2-p-tolyl-5H,6H-1-oxa-3,5,6,8-tetraaza-cyclopenta[a]naphthalene-4,7,9-trione], for which the “MarA inhibition score (cell survival)” value is given as “*”.

For the compound `O=c1/c(=C/c2c[nH]nc2-c2ccccc2)sc2nc3ccccc3n12` [M, 2-(3-Phenyl-1H-pyrazol-4-ylmethylene)-benzo[4,5]imidazo[2,1-b]thiazol-3-one], the “MarA inhibition score (cell survival)” value was “**”.

On to `O=C1C=Cc2ccccc2/C1=N\Oc1ccc2noc3c2c1C(=O)c1ccccc1-3` [Z, [1,2]Naphthoquinone 1-[O-(6-oxo-6H-anthra[1,9-cd]isoxazol-5-yl)-oxime]], for which the “MarA inhibition score (cell survival)” value is reported as “*”.

With `CCOc1ccc(C2Nc3ccccc3-c3nnc(SC)nc3O2)cc1` (centres unmarked) [B, 6-(4-Ethoxy-phenyl)-3-methylsulfanyl-6,7-dihydro-5-oxa-1,2,4,7-tetraaza-dibenzo[a,c]cycloheptene], the “MarA inhibition score (cell survival)” value was “*”.

With `CCCCSc1nnc2c(n1)OC(c1ccc(OCC)cc1)Nc1ccccc1-2` (centres unmarked) [J, 3-Butylsulfanyl-6-(4-ethoxy-phenyl)-6,7-dihydro-5-oxa-1,2,4,7-tetraaza-dibenzo[a,c]cycloheptene], the “MarA inhibition score (cell survival)” value was “*”.

On to `CSc1nnc2c(n1)OC(c1ccc([N+](=O)[O-])o1)Nc1ccccc1-2` (centres unmarked) [C, 3-Methylsulfanyl-6-(5-nitro-furan-2-yl)-6,7-dihydro-5-oxa-1,2,4,7-tetraaza-dibenzo[a,c]cycloheptene], for which the “MarA inhibition score (cell survival)” value was “*”.

Consider `CCCSc1nnc2c(n1)OC(c1ccc(-c3cccc([N+](=O)[O-])c3)o1)Nc1ccccc1-2` (centres unmarked) [L, 6-[5-(3-Nitro-phenyl)-furan-2-yl]-3-propylsulfanyl-6,7-dihydro-5-oxa-1,2,4,7-tetraaza-dibenzo[a,c]cycloheptene], for which the “MarA inhibition score (cell survival)” value is reported as “**”.

As for `CCOC(=O)C1=C(C)N=c2s/c(=C/c3ccc(-c4ccc(C)c([N+](=O)[O-])c4)o3)c(=O)n2C1c1ccc(N(C)C)cc1` (centres unmarked) [X, 5-(4-Dimethylamino-phenyl)-7-methyl-2-[5-(4-methyl-3-nitro-phenyl)-furan-2-ylmethylene]-3-oxo-2,3-dihydro-5H-thiazolo[3,2-a]pyrimidine-6-carboxylic acid ethyl ester], the “MarA inhibition score (cell survival)” value is listed as “**”.

On to `CSc1nnc2c(n1)OC(c1ccc(I)o1)Nc1ccccc1-2` (centres unmarked) [A, 6-(5-Iodo-furan-2-yl)-3-methylsulfanyl-6,7-dihydro-5-oxa-1,2,4,7-tetraaza-dibenzo[a,c]cycloheptene], for which the “MarA inhibition score (cell survival)” value was “**”.

With `CCOC(=O)C(C(N)=O)C1(O)OC(c2ccc(C)cc2)=CC1=O` (centres unmarked) [BC, 2-(2-Hydroxy-3-oxo-5-p-tolyl-2,3-dihydro-furan-2-yl)-malonamic acid ethyl ester], the “MarA inhibition score (cell survival)” value is recorded as “*”.

Consider `O=C1C(=C2NC(c3ccccn3)C3C(=O)N(c4ccccc4)C(=O)C23)C(=O)c2ccccc21` (centres unmarked) [BB, 4-(1,3-dioxo-1,3-dihydro-2H-inden-2-yliden)-2-phenyl-6-(2-pyridinyl)tetrahydro pyrrolo[3,4-c]pyrrole-1,3(2H,3aH)-dione], for which the “MarA inhibition score (cell survival)” value is “*”.

`CCCCSc1nnc2c(n1)OC(c1ccc(OC)cc1OC)Nc1ccccc1-2` (centres unmarked) [H, 3-Butylsulfanyl-6-(2,4-dimethoxy-phenyl)-6,7-dihydro-5-oxa-1,2,4,7-tetraaza-dibenzo[a,c]cycloheptene]: the “MarA inhibition score (cell survival)” value was “*”.

Turning to `CCCSc1nnc2c(n1)OC(c1ccc(OCc3ccccc3)cc1)Nc1ccccc1-2` (centres unmarked) [F, 6-(4-Benzyloxy-phenyl)-3-propylsulfanyl-6,7-dihydro-5-oxa-1,2,4,7-tetraaza-dibenzo[a,c]cycloheptene], the “MarA inhibition score (cell survival)” value is “**”.

As to `CSc1nnc2c(n1)OC(c1ccc(-c3ccc([N+](=O)[O-])cc3)o1)Nc1ccccc1-2` (centres unmarked) [D, 3-Methylsulfanyl-6-[5-(4-nitro-phenyl)-furan-2-yl]-6,7-dihydro-5-oxa-1,2,4,7-tetraaza-dibenzo[a,c]cycloheptene], the “MarA inhibition score (cell survival)” value is “*”.

As for `CSc1cccc(NC(=O)CSc2nnc(-c3ccc4nonc4c3)n2C)c1` [AE, 2-(5-Benzo[1,2,5]oxadiazol-5-yl-4-methyl-4H-[1,2,4]triazol-3-ylsulfanyl)-N-(3-methylsulfanyl-phenyl)-acetamide], the “MarA inhibition score (cell survival)” value is on record as “*”.

Consider `CN(C)c1ccc(-c2cc(=O)c3ccccc3o2)cc1` [AW, 2-[4-(dimethylamino)phenyl]-4H-chromen-4-one], for which the “MarA inhibition score (cell survival)” value was “**”.

Turning to `CCCSc1nnc2c(n1)OC(c1ccc(OC)cc1)Nc1ccccc1-2` (centres unmarked) [K, 6-(4-Methoxy-phenyl)-3-propylsulfanyl-6,7-dihydro-5-oxa-1,2,4,7-tetraaza-dibenzo[a,c]cycloheptene], the “MarA inhibition score (cell survival)” value is reported as “*”.

As for `C=CCOc1ccc(C2Nc3ccccc3-c3nnc(SCCCC)nc3O2)cc1` (centres unmarked) [I, 6-(4-Allyloxy-phenyl)-3-butylsulfanyl-6,7-dihydro-5-oxa-1,2,4,7-tetraaza-dibenzo[a,c]cycloheptene], the “MarA inhibition score (cell survival)” value is recorded as “**”.

As to `CCOC(=O)C1=C(C)N=c2s/c(=C\c3ccc(-c4cccc(C(=O)O)c4)o3)c(=O)n2C1c1ccc(N(C)C)cc1` (centres unmarked) [W, 2-[5-(3-Carboxy-phenyl)-furan-2-ylmethylene]-5-(4-dimethylamino-phenyl)-7-methyl-3-oxo-2,3-dihydro-5H-thiazolo[3,2-a]pyrimidine-6-carboxylic acid ethyl ester], the “MarA inhibition score (cell survival)” value is reported as “**”.

Take `O=c1cc(-c2ccc(O)cc2)oc2ccccc12` [BG, 2-(4-hydroxyphenyl)-4H-chromen-4-one]: the “MarA inhibition score (cell survival)” value was “*”.

Regarding `COn1c(-c2ccc(C)cc2)nc2ncccc21` [BF, 1-methoxy-2-(4-methylphenyl)-1H-imidazo[4,5-b]pyridine], the “MarA inhibition score (cell survival)” value was “*”.

Turning to `CCOC(=O)C1=C(C)N=c2s/c(=C/c3ccc(-c4cccc(C(F)(F)F)c4)o3)c(=O)n2C1c1ccccc1` (centres unmarked) [U, 7-Methyl-3-oxo-5-phenyl-2-[5-(3-trifluoromethyl-phenyl)-furan-2-ylmethylene]-2,3-dihydro-5H-thiazolo[3,2-a]pyrimidine-6-carboxylic acid ethyl ester], the “MarA inhibition score (cell survival)” value was “**”.

Consider `c1ccc(COn2c(-c3ccccc3)nc3ncccc32)cc1` [AX, 1-(benzyloxy)-2-phenyl-1H-imidazo[4,5-b]pyridine], for which the “MarA inhibition score (cell survival)” value was “**”.
